Data published in PubChem BioAssay (NCI).
Where “and” joins values, the source holds several entries; their conditions need not be identical. Equal entries are not always repeated.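 Test compounds were applied to cells in 96-well plates for 48 hours at 5 doses. Here, GI50 denotes the concentration required for 50% inhibition of growth. The concentration for full growth arrest is given as TGI.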

Legend:
Experiment in all cases: NCI-60 cell line screen, 48 h
SR leukemia = test system: SR leukemia
SNB-75 CNS = test system: SNB-75 CNS
U251 CNS = test system: U251 CNS
ACHN renal = test system: ACHN renal
UO-31 renal = test system: UO-31 renal
BT-549 breast = test system: BT-549 breast
HCC-2998 colon = test system: HCC-2998 colon
CCRF-CEM leukemia = test system: CCRF-CEM leukemia
MALME-3M melanoma = test system: MALME-3M melanoma
T-47D breast = test system: T-47D breast

SMILES	GI50 (SR leukemia) [µM]	TGI (SR leukemia) [µM]	GI50 (SNB-75 CNS) [µM]	TGI (SNB-75 CNS)	GI50 (U251 CNS) [µM]	TGI (U251 CNS) [µM]	GI50 (ACHN renal) [µM]	TGI (ACHN renal) [µM]	GI50 (UO-31 renal) [µM]	TGI (UO-31 renal) [µM]	GI50 (BT-549 breast) [µM]	TGI (BT-549 breast) [µM]	TGI (HCC-2998 colon)	TGI (CCRF-CEM leukemia) [µM]	TGI (MALME-3M melanoma)	GI50 (T-47D breast) [µM]	TGI (T-47D breast) [µM]	GI50 (HCC-2998 colon) [µM]	GI50 (CCRF-CEM leukemia)	GI50 (MALME-3M melanoma) [µM]
CCSc1nc(N)c(C#N)c(-c2ccco2)c1C#N	20.2	> 100	> 100	> 100 µM	22.7	83.7	16.9	69.2	56.1	> 100	32.3	> 100								
O=C(COc1ccc(Cl)cc1)N1CCN(C(=O)COc2ccc(Cl)cc2)c2ccccc21				> 100 µM		> 100		> 100		53.9			> 100 µM	> 100	> 100 µM					
CC1=C(C(=O)Nc2ccc(F)c(Cl)c2)C(c2ccccc2O)NC(=O)N1 (stereo not given)			40	> 100 µM	> 100	> 100	> 100	> 100	80.7	> 100	71.5	> 100	> 100 µM	> 100		42.4	> 100	> 100	59.9 µM	
CN1CCN(c2cc3nc4ccccc4n(-c4ccc(Cl)cc4)c-3cc2=N)CC1					18.9	49.7	23.4	> 100	29.2	> 100	41.6	> 100	54.9 µM		33.1 µM	> 100	> 100	23.1		17.2
C/C(=C\Cc1cc(O)ccc1O)CCc1c(C)c(O)c(O)c(C=O)c1C		51		> 100 µM		59.6		52.8		98.8			> 100 µM	9.6	80.2 µM					
CC/C=C\C/C=C/C=C1/C(=O)C=C[C@@H]1C/C=C\CCCC(=O)OC	0.398	15.5	25	> 100 µM	2.35	6.83	1.97	3.99	1.64	3.6			3.62 µM	8.7	6.64 µM	3.9	24	2.03	1.25 µM	2.5
O=C(O)[C@@H](NS(=O)(=O)c1ccc2ccccc2c1)c1ccccc1				> 100 µM		> 100		> 100		> 100			> 100 µM	> 100	> 100 µM					
Nc1ccc(C(=O)NN2C(=O)C(Cl)C2c2cccc(O)c2)cc1 (stereo not given)				56.1 µM		25.2		37.9		35			29.8 µM	28.9	36.7 µM					
C#C[C@H]1CCCCCC1O (stereo not given in full)		> 100		> 100 µM		> 100		> 100		> 100			> 100 µM	> 100	> 100 µM					
COc1ccc2c(c1)C(=O)c1c-2c(N2CCNCC2)nc2ccccc12			10.9	26.5 µM	4.6	16.6	2.78	8.24	2.29	6.66	3.4	11.4		2.94	4.34 µM	1.96	4.41		1.36 µM	1.79
Clc1ccccc1NN(Cc1ccncc1)c1ccccc1Cl		32.2		32.1 µM		26.4		35.6		63.3		33.7			35.9 µM					
CCC[CH2][Sn]([CH2]CCC)([O]C(=O)/C=C/c1ccccc1F)[O]C(=O)/C=C/c1ccccc1F	0.305	2.1	0.692	2.06 µM	0.511	1.41	0.797	2.05	0.775	2.06			2.29 µM	0.616	1.6 µM			1.06	0.139 µM	0.385
COC(=O)C#CCC1CCCC1C1SCCS1 (stereo not given)		84.3		> 100 µM		> 100		> 100		> 100			> 100 µM	72.3	> 100 µM					
CC(=O)Nc1ccc(C(=O)NN2C(=O)C(Cl)C2c2ccc(O)cc2)cc1 (stereo not given)				> 100 µM		> 100		> 100		> 100				> 100	> 100 µM					
CCC1C(=O)OCc2c1cc1n(c2=O)C(CC)c2c-1nc1ccccc1c2Cl (stereo not given)						49.4		> 100		> 100				> 100	> 100 µM					
CCN(CC)CCCC(C)Nc1c(Sc2cnc3cc(Cl)ccc3c2NC(C)CCCN(CC)CC)cnc2cc(Cl)ccc12 (stereo not given)				2.98 µM		2.99		3.82		35.5			1.14 µM	5.21	3.71 µM					
COc1ccc(-c2onc(-c3c(C)cc(C)cc3C)c2C2=NCCN2)cc1		> 100		> 100 µM		46.7		> 100		> 100			> 100 µM	> 100	74.1 µM					
O=C(N/C(=C\c1cc(Cl)ccc1Cl)c1nc2ccc(Cl)cc2[nH]1)c1ccccc1		25.5		35.2 µM		30.1		78.1		24.4			32.4 µM	51.4	35.8 µM					
COc1cccc2c1[C@H]1CO[C@H]3C4C[C@H](C(=O)O)C([C@@H](C2)N13)N4C (stereo not given in full)		8.55	0.809	4.85 µM and 3.53 µM	0.5	5.52				7.72		0.339	8.08 µM and 1.2 µM		4.8 µM and 1.6 µM			0.593	2.42 µM and 1.6 µM	0.696
CCN(CC)CCC(CNc1c(C)cnc2cc(Cl)ccc12)c1ccc(Cl)cc1 (stereo not given)	0.0333	7.06	5.67	21 µM	3.83	13.2	6.47	20.1			11.2	24.9		19.2		2.57	10.5		4.32 µM	
O=c1c(-c2ccccc2)coc2cc(OC/C(=N/O)c3ccc(F)cc3)ccc12			16.8	92.9 µM	18.2	36.8	22.4	43.5	17.4	50.2	20.3	41.8		> 100	31.9 µM	7.87	68.5		26 µM	10.1
